According to paper PMC5975062 (Alzheimer's & Dementia : Translational Research & Clinical …, 2015):
“Also recorded” adds a separate entry of the source.

Experiments:
QC activity in CSF = QC activity in CSF (Homo sapiens, UniProt Q16769); settings: after single and multiple doses
QC activity in serum = QC activity in serum (Homo sapiens, UniProt Q16769); settings: after single and multiple doses
QC activity in serum, sequence (Q16769 29-361): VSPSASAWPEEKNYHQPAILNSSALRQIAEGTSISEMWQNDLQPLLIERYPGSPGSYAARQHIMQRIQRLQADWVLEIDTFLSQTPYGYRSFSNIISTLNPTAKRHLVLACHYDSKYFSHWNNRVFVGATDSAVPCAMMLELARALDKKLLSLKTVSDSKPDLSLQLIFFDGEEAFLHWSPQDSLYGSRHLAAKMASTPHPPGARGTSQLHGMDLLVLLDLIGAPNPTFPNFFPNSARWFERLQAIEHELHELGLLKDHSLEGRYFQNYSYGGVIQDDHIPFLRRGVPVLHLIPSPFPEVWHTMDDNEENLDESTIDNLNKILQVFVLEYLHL

QC activity in CSF, sequence (Q16769 29-361): as above

## CCCOc1ccc([C@H]2CNC(=O)N2c2ccc3[nH]cnc3c2)cc1 [PQ912]
QC activity in CSF
  QC activity in CSF: inhibited in a dose-related manner; also recorded: decreased in a dose-related manner
QC activity in serum
  QC activity in serum: inhibited in a dose-related manner; also recorded: decreased in a dose-related manner
